According to patent publication US8067445B2, “N,N-disubstituted aminoalkylbiphenyl antagonists of prostaglandin D2 receptors” (Panmira Pharmaceuticals, LLC, priority 2008, dated 2011):

Assays:
human DP2 receptor = target: T1, human DP2 receptor (Homo sapiens, UniProt Q9Y5Y4); experiment: DP2/CRTH2 radioligand binding assay ([3H]PGD2); conditions: [3H]PGD2 binding, membranes of HEK293 cells expressing human DP2; read-out: hDP2
T1 construct: expressed in transfected cells
T1 sequence (Q9Y5Y4 1-395): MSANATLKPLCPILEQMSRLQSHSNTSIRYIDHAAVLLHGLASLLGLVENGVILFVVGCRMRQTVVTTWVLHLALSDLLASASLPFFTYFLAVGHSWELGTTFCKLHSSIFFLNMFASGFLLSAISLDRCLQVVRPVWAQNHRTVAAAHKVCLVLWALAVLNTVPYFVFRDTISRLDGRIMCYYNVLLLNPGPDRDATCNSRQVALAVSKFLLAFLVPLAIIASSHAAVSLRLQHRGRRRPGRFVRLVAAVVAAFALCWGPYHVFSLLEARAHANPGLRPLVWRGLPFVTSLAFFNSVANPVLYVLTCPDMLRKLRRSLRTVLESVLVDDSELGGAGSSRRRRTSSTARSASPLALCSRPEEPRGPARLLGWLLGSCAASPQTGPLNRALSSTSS
How it was run: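 Membranes from HEK293 cells stably expressing recombinant human DP2 incubated 60 min at room temperature with 1 nM [3H]PGD2 and compound in pH 7.4 Hepes/MnCl2/EDTA buffer, ± 0.2% human serum albumin. Bound radioactivity measured after filtration; non-specific binding defined with 10 μM PGD2. IC50 from titration curves.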

human DP1 receptor = target: T2, human DP1 receptor (Homo sapiens, UniProt Q13258); experiment: DP1 radioligand binding assay ([3H]BWA868C, platelet membranes); conditions: [3H]BWA868C binding, human platelet membranes; read-out: hDP1
T2 construct: tissue Biological Specialty Corporation; host or cells: human platelet membranes
T2 sequence (Q13258 1-359): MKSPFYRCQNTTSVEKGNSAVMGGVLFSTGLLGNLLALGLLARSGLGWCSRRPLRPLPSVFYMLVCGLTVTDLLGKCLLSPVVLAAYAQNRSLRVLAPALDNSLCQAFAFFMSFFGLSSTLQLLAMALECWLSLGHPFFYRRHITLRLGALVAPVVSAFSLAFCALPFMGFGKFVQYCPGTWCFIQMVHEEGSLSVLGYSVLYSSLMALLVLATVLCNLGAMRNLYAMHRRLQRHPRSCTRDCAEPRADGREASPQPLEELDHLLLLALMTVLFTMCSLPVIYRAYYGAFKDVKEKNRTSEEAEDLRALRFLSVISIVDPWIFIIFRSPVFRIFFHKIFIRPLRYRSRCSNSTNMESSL
Procedure: The ability of a compound to bind to the human DPI receptor was evaluated via a radioligand membrane binding assay using the DP1 selective synthetic ligand [^311]BWA868C. Packed human platelets (Biological Specialty Corporation), were resuspended in 6 volumes of Hepes/HBSS buffer (10 mM Hepes, 1 mM DTT in Hanks Balanced Salt Solution (HBSS)), lysed and centrifuged at 75,000×g to pellet the membranes. Membranes were resuspended in Hepes/HBSS buffer to approximately 12 mg protein/ml. Membranes (20 μg protein/well) are incubated in 96-well plates with 2 nM [^3H]BWA868C and test compound in Assay Buffer (50 mM Hepes, 10 mM MnCl2, 1 mM EDTA, plus or minus 0.2% human serum albumin, pH 7.4) for 60 minutes at room temperature. The reactions are terminated by rapid filtration through Whatman GF/C glass fibre filter plates. The filter plates were pre-soaked in 0.33% polyethylenimine for 30 minutes at room temperature then washed in Wash Buffer (50 mM Hepes, 0.5 M NaCl pH 7.4) prior to harvesting. After harvesting, the filter plates are washed 3 times with 1 ml cold Wash Buffer then dried. Scintillant is then added to the plates and the radioactivity retained on the filters is determined on a Packard TopCount (Perkin Elmer). Specific binding is determined as total radioactive binding minus non-specific binding in the presence of 10 μM BW A868C. IC50s were determined using GraphPad prism analysis of drug titration curves.

Question: `COc1ccc(CC(=O)O)cc1-c1ccc(C(F)(F)F)cc1CN(C(C)=O)[C@@H]1c2ccccc2C[C@@H]1O` [Compound 1-15, (2′-{[Acetyl-((1R,2S)-2-hydroxy-indan-1-yl)-amino]-methyl}-6-methoxy-4′-trifluoromethyl-biphenyl-3-yl)-acetic acid] was tested. Which IC50 (human DP2 receptor) did it give?
Answer: 1 to 30 µM

Question: What about the IC50 (human DP1 receptor) of the same molecule?
Answer: 1 to 30 µM

Question: For `COc1ccc(CC(=O)O)cc1-c1ccc(C(F)(F)F)cc1CN(C(C)=O)[C@@H]1c2ccccc2C[C@@H]1OC` [Compound 1-16, (2′-{[Acetyl-((1R,2S)-2-methoxy-indan-1-yl)-amino]-methyl}-6-methoxy-4′-trifluoromethyl-biphenyl-3-yl)-acetic acid], which IC50 (human DP2 receptor) is on record?
Answer: 1 to 30 µM

Question: And the IC50 (human DP1 receptor)?
Answer: 1 to 30 µM

Question: How did the IC50 (human DP2 receptor) turn out when `CCN(C(C)=O)C(C)c1cc(C(F)(F)F)ccc1-c1cc(CC(=O)O)ccc1OC` (stereo not shown) [Compound 1-22, {2′-[1-(Acetyl-ethyl-amino)-ethyl]-6-methoxy-4′-trifluoromethyl-biphenyl-3-yl}-acetic acid] was run?
Answer: 1 to 30 µM

Question: What about the IC50 (human DP1 receptor) of the same molecule?
Answer: 1 to 30 µM

Question: For `COc1ccc(CC(=O)O)cc1-c1ccc(C(=O)O)cc1CN(CC(F)(F)F)C(C)=O` [Compound 1-37, 2-{[Acetyl-(2,2,2-trifluoro-ethyl)-amino]-methyl}-5′-carboxymethyl-2′-methoxy-biphenyl-4-carboxylic acid], which IC50 (human DP2 receptor) is on record?
Answer: 1 to 30 µM

Question: And the IC50 (human DP1 receptor)?
Answer: 1 to 30 µM

Question: Which results are given for `O=C(O)Cc1ccc(F)c(-c2ccc(C(F)(F)F)cc2CN(CC(F)(F)F)C(=O)OCc2ccccc2)c1` [Compound 1-49, (2′-{[Benzyloxycarbonyl-(2,2,2-trifluoro-ethyl)-amino]-methyl}-6-fluoro-4′-trifluoromethyl-biphenyl-3-yl)-acetic acid]?
Answer: IC50 (human DP2 receptor): 1 to 30 µM; IC50 (human DP1 receptor): 1 to 30 µM

Question: With `CCN(Cc1cc(C(F)(F)F)ccc1-c1cc(C(F)(F)C(=O)O)ccc1OC)C(C)=O` [Compound 1-91, {2′-[(Acetyl-ethyl-amino)-methyl]-6-methoxy-4′-trifluoromethyl-biphenyl-3-yl}-difluoro-acetic acid] as the molecule, how does the IC50 (human DP2 receptor) read?
Answer: 1 to 30 µM

Question: What about the IC50 (human DP1 receptor) of the same molecule?
Answer: 1 to 30 µM

Question: What does the source list for `COc1ccc(CC(=O)O)cc1-c1ccc(C(F)(F)F)cc1CN(CCc1ccccc1)S(C)(=O)=O` [Compound 1-101, {2′-[(Methanesulfonyl-phenethyl-amino)-methyl]-6-methoxy-4′-trifluoromethyl-biphenyl-3-yl}-acetic acid]?
Answer: IC50 (human DP2 receptor): 1 to 30 µM; IC50 (human DP1 receptor): 1 to 30 µM

Question: Which results are given for `COc1ccc(CC(=O)O)cc1-c1ccc(C(F)(F)F)cc1CN(C(C)=O)[C@@H](C)[C@H](O)c1ccccc1` [Compound 1-104, (2′-{[Acetyl-((1S,2R)-2-hydroxy-1-methyl-2-phenyl-ethyl)-amino]-methyl}-6-methoxy-4′-trifluoromethyl-biphenyl-3-yl)-acetic acid]?
Answer: IC50 (human DP2 receptor): 1 to 30 µM; IC50 (human DP1 receptor): 1 to 30 µM

Question: With `CCN(Cc1cc(C(F)(F)F)ccc1-c1cc(C(C)(C)C(=O)O)ccc1OC)C(C)=O` [Compound 1-115, 2-{2′-[(Acetyl-ethyl-amino)-methyl]-6-methoxy-4′-trifluoromethyl-biphenyl-3-yl}-2-methyl-propionic acid] as the molecule, how does the IC50 (human DP2 receptor) read?
Answer: > 30 µM

Question: What about the IC50 (human DP1 receptor) of the same molecule?
Answer: 1 to 30 µM

Question: What does the source list for `CCN(Cc1cc(C(F)(F)F)ccc1-c1cc(C(C)(C)C(=O)O)ccc1OC)C(=O)OCc1ccccc1` [Compound 1-116, 2-{2′-[(Benzyloxycarbonyl-ethyl-amino)-methyl]-6-methoxy-4′-trifluoromethyl-biphenyl-3-yl}-2-methyl-propionic acid]?
Answer: IC50 (human DP2 receptor): 0.3 to 1 µM; IC50 (human DP1 receptor): 1 to 30 µM

Question: With `CCN(Cc1cc(C(F)(F)F)ccc1-c1ccc(C(F)(F)F)c(CC(=O)O)c1)C(=O)OCc1ccccc1` [Compound 1-124, {2′-[(Benzyloxycarbonyl-ethyl-amino)-methyl]-4,4′-bis-trifluoromethyl-biphenyl-3-yl}-acetic acid] as the molecule, how does the IC50 (human DP2 receptor) read?
Answer: 0.3 to 1 µM

Question: And the IC50 (human DP1 receptor)?
Answer: 0.3 to 1 µM

Question: How did the IC50 (human DP2 receptor) turn out when `CCN(Cc1cc(C(F)(F)F)ccc1-c1cc(C(F)(F)C(=O)O)ccc1OC)C(=O)OCc1ccccc1` [Compound 1-132, {2′-[(Benzyloxycarbonyl-ethyl-amino)-methyl]-6-methoxy-4′-trifluoromethyl-biphenyl-3-yl}-difluoro-acetic acid] was run?
Answer: 1 to 30 µM

Question: And the IC50 (human DP1 receptor)?
Answer: 1 to 30 µM

Question: With `CCN(Cc1cc(C(F)(F)F)ccc1-c1cc(Cl)cc(CC(=O)O)c1)C(=O)C1CC1` [Compound 1-135, {5-Chloro-2′-[(cyclopropanecarbonyl-ethyl-amino)-methyl]-4′-trifluoromethyl-biphenyl-3-yl}-acetic acid] as the molecule, how does the IC50 (human DP2 receptor) read?
Answer: < 0.3 µM

Question: What about the IC50 (human DP1 receptor) of the same molecule?
Answer: 1 to 30 µM

Question: For `CCN(Cc1cc(C(F)(F)F)ccc1-c1cc(Cl)cc(CC(=O)O)c1)C(C)=O` [Compound 1-137, {2′-[(Acetyl-ethyl-amino)-methyl]-5-chloro-4′-trifluoromethyl-biphenyl-3-yl}-acetic acid], which IC50 (human DP2 receptor) is on record?
Answer: < 0.3 µM

Question: And the IC50 (human DP1 receptor)?
Answer: 1 to 30 µM

Question: With `CCN(Cc1cc(C(F)(F)F)ccc1-c1cc(CC(=O)O)cc(C(F)(F)F)c1)C(C)=O` [Compound 1-138, {2′-[(Acetyl-ethyl-amino)-methyl]-5,4′-bis-trifluoromethyl-biphenyl-3-yl}-acetic acid] as the molecule, how does the IC50 (human DP2 receptor) read?
Answer: < 0.3 µM

Question: And the IC50 (human DP1 receptor)?
Answer: 1 to 30 µM

Question: Which results are given for `CCN(Cc1cc(C(F)(F)F)ccc1-c1cc(CC(=O)O)ccc1OC)C(=O)NCc1ccccn1` [Compound 1-139, [2′-(1-Ethyl-3-pyridin-2-ylmethyl-ureidomethyl)-6-methoxy-4′-trifluoromethyl-biphenyl-3-yl]-acetic acid]?
Answer: IC50 (human DP2 receptor): < 0.3 µM; IC50 (human DP1 receptor): 1 to 30 µM

Question: Which IC50 (human DP2 receptor) does the source give for `CCN(Cc1cc(C(F)(F)F)ccc1-c1cc(CC(=O)O)ccc1OC)C(=O)NCc1ccc(Cl)cc1` [Compound 1-140, {2′-[3-(4-Chloro-benzyl)-1-ethyl-ureidomethyl]-6-methoxy-4′-trifluoromethyl-biphenyl-3-yl}-acetic acid] here?
Answer: < 0.3 µM

Question: What about the IC50 (human DP1 receptor) of the same molecule?
Answer: 1 to 30 µM

Question: Which IC50 (human DP2 receptor) does the source give for `CCN(Cc1cc(C(F)(F)F)ccc1-c1cc(CC(=O)O)ccc1-c1ccccc1)C(=O)OCc1ccccc1` [Compound 1-144, {2″-[(Benzyloxycarbonyl-ethyl-amino)-methyl]-4″-trifluoromethyl-[1,1′;2′,1″]terphenyl-4′-yl}-acetic acid] here?
Answer: < 0.3 µM

Question: And the IC50 (human DP1 receptor)?
Answer: 0.3 to 1 µM

Question: `CCCN/C(=N\C#N)N(CC)Cc1cc(C(F)(F)F)ccc1-c1cc(CC(=O)O)ccc1OC` [Compound 1-145, [2′-(N′-Cyano-N-ethyl-N″-propyl-guanidinomethyl)-6-methoxy-4′-trifluoromethyl-biphenyl-3-yl]-acetic acid] was tested. Which IC50 (human DP2 receptor) did it give?
Answer: < 0.3 µM

Question: And the IC50 (human DP1 receptor)?
Answer: 1 to 30 µM

Question: What does the source list for `CCN(Cc1cc(C(F)(F)F)ccc1-c1cc(CC(=O)O)ccc1OC)/C(=N/C#N)NCC1CC1` [Compound 1-146, [2′-(N′-Cyano-N″-cyclopropylmethyl-N-ethyl-guanidinomethyl)-6-methoxy-4′-trifluoromethyl-biphenyl-3-yl]-acetic acid]?
Answer: IC50 (human DP2 receptor): < 0.3 µM; IC50 (human DP1 receptor): 1 to 30 µM

Question: What does the source list for `CCN(Cc1cc(C(F)(F)F)ccc1-c1cc(CC(=O)O)ccc1OC)/C(=N/C#N)NCc1ccccn1` [Compound 1-147, [2′-(N′-Cyano-N-ethyl-N″-pyridin-2-ylmethyl-guanidinomethyl)-6-methoxy-4′-trifluoromethyl-biphenyl-3-yl]-acetic acid]?
Answer: IC50 (human DP2 receptor): < 0.3 µM; IC50 (human DP1 receptor): 1 to 30 µM

Question: Which results are given for `CCN(Cc1cc(C(F)(F)F)ccc1-c1cc(CC(=O)O)ccc1OC)C(=O)Cn1cccn1` [Compound 1-148, (2′-{[Ethyl-(2-pyrazol-1-yl-acetyl)-amino]-methyl}-6-methoxy-4′-trifluoromethyl-biphenyl-3-yl)-acetic acid]?
Answer: IC50 (human DP2 receptor): < 0.3 µM; IC50 (human DP1 receptor): 1 to 30 µM

Question: `CCN(Cc1cc(C(F)(F)F)ccc1-c1cc(CC(=O)O)ccc1OC)C(=O)Cn1ccnc1C` [Compound 1-149, [2′-({Ethyl-[2-(2-methyl-imidazol-1-yl)-acetyl]-amino}-methyl)-6-methoxy-4′-trifluoromethyl-biphenyl-3-yl]-acetic acid] was tested. Which IC50 (human DP2 receptor) did it give?
Answer: < 0.3 µM

Question: And the IC50 (human DP1 receptor)?
Answer: 1 to 30 µM
